Source: PubChem BioAssay AID248 (DTP/NCI, 2004)
Inconclusive results and toxic doses are left out. Rule as the data show it: active = T/C of 150% or more; inactive = T/C below 125%.

Tested on: L1210 leukemia ip in BDF1 mice, survival T/C
Assay: NCI In Vivo Anticancer Drug Screen. Data for tumor model L1210 Leukemia (intraperitoneal) in B6D2F1 (BDF1) mice
Settings: endpoint: mean survival time, higher = longer survival
Outline: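 Mice bearing the transplanted tumor received compound or vehicle. Survival of the treated group was divided by that of the vehicle-treated control group to give the ratio.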

[1] = dose: 100.0 mg/kg/injection, schedule: Q04DX002 (ip), vehicle: Klucel (hydroxypropylcellulose) (HPC)
[2] = dose: 200.0 mg/kg/injection, schedule: Q04DX002 (ip), vehicle: Klucel (hydroxypropylcellulose) (HPC)
[3] = dose: 400.0 mg/kg/injection, schedule: Q04DX002 (ip), vehicle: Klucel (hydroxypropylcellulose) (HPC)
[4] = dose: 50.0 mg/kg/injection, schedule: Q01DX001 (ip), vehicle: saline
[5] = dose: 100.0 mg/kg/injection, schedule: Q01DX001 (ip), vehicle: saline
[6] = dose: 200.0 mg/kg/injection, schedule: Q01DX001 (ip), vehicle: saline
[7] = dose: 400.0 mg/kg/injection, schedule: Q01DX001 (ip), vehicle: saline
[8] = dose: 100.0 mg/kg/injection, schedule: Q01DX009 (ip), vehicle: Klucel (hydroxypropylcellulose) (HPC)
[9] = dose: 200.0 mg/kg/injection, schedule: Q01DX009 (ip), vehicle: Klucel (hydroxypropylcellulose) (HPC)

Measured: T/C

C1=Cc2ccccc2/C1=C/c1cccc(/C=C2\C=Cc3ccccc32)c1
inactive: dose: 6.25 mg/kg/injection, schedule: Q01DX009 (ip), vehicle: saline with Tween-80 101 % of control | dose: 12.5 mg/kg/injection, schedule: Q01DX009 (ip), vehicle: saline with Tween-80 97 % of control | dose: 12.5 mg/kg/injection, schedule: Q04DX003 (ip), vehicle: saline with Tween-80 100 % of control | dose: 25.0 mg/kg/injection, schedule: Q01DX009 (ip), vehicle: saline with Tween-80 97 % of control | dose: 25.0 mg/kg/injection, schedule: Q04DX003 (ip), vehicle: saline with Tween-80 95 % of control

O=C(N=C1SCCS1)Nc1cccc(Cl)c1
inactive: [1] 100 % of control | [2] 95 % of control | [3] 110 % of control

Cc1ccc(CCn2cnc3c(=S)nc[nH]c32)cc1
inactive: [4] 98 % of control | [5] 93 % of control | [6] 104 % of control | [7] 93 % of control

NC(=O)C1=C(N)c2ccccc2C1c1ccccc1 (stereo unspecified)
inactive: [5] 101 % of control | [6] 97 % of control | [7] 97 % of control

OCCC(c1ccc(Cl)cc1)N1CCCCC1 (stereo unspecified)
inactive: dose: 100.0 mg/kg/injection, schedule: Q01DX001 (ip), vehicle: other 104 % of control

c1ccc2cc3cc4cc5ccccc5cc4cc3cc2c1
inactive: dose: 50.0 mg/kg/injection, schedule: Q01DX009 (ip), vehicle: saline 97 % of control | dose: 100.0 mg/kg/injection, schedule: Q01DX009 (ip), vehicle: saline 101 % of control | dose: 200.0 mg/kg/injection, schedule: Q01DX009 (ip), vehicle: saline 101 % of control

COC1=C(Cl)C(=O)C(OC)=C(Cl)C1=O
inactive: dose: 5.0 mg/kg/injection, schedule: Q01DX001 (ip), vehicle: saline 97 % of control | dose: 10.0 mg/kg/injection, schedule: Q01DX001 (ip), vehicle: saline 95 % of control | dose: 20.0 mg/kg/injection, schedule: Q01DX001 (ip), vehicle: saline 106 % of control | dose: 40.0 mg/kg/injection, schedule: Q01DX001 (ip), vehicle: saline 101 % of control

CNC(=O)Oc1cccc(NC(=O)OC(C)(C)C)c1
inactive: dose: 100.0 mg/kg/injection, schedule: Q04DX003 (ip), vehicle: saline with Tween-80 101 % of control | dose: 200.0 mg/kg/injection, schedule: Q04DX003 (ip), vehicle: saline with Tween-80 94 % of control | dose: 400.0 mg/kg/injection, schedule: Q04DX003 (ip), vehicle: saline with Tween-80 95 % of control

[O-]c1c[n+](-c2ccc(Cl)cc2Cl)no1
inactive: dose: 50.0 mg/kg/injection, schedule: Q04DX002 (ip), vehicle: Klucel (hydroxypropylcellulose) (HPC) 100 % of control | [8] 100 % of control | [1] 106 % of control | [2] 103 % of control

CCN(CC)CCCNc1cc(OC)cc2cccnc12
inactive: dose: 10.0 mg/kg/injection, schedule: Q01DX001 (ip), vehicle: carboxymethylcellulose (CMC) 107 % of control | dose: 20.0 mg/kg/injection, schedule: Q01DX001 (ip), vehicle: carboxymethylcellulose (CMC) 101 % of control

CCCCS(=O)(=O)Cc1ccccc1
inactive: [8] 98 % of control | [1] 100 % of control | [9] 103 % of control | [2] 96 % of control | dose: 400.0 mg/kg/injection, schedule: Q01DX009 (ip), vehicle: Klucel (hydroxypropylcellulose) (HPC) 98 % of control | [3] 93 % of control

Nc1cc2scnc2c(N)n1
inactive: dose: 100.0 mg/kg/injection, schedule: Q01DX001 (ip), vehicle: Klucel (hydroxypropylcellulose) (HPC) 94 % of control | dose: 200.0 mg/kg/injection, schedule: Q01DX001 (ip), vehicle: Klucel (hydroxypropylcellulose) (HPC) 91 % of control | dose: 400.0 mg/kg/injection, schedule: Q01DX001 (ip), vehicle: Klucel (hydroxypropylcellulose) (HPC) 86 % of control

c1ccc(-c2oc(-c3ccccc3)c3c(-c4ccccc4)cccc23)cc1
inactive: dose: 100.0 mg/kg/injection, schedule: Q04DX002 (ip), vehicle: saline with Tween-80 105 % of control | dose: 400.0 mg/kg/injection, schedule: Q04DX002 (ip), vehicle: saline with Tween-80 98 % of control

O=C(Cc1ccccc1)NCCc1ccc(-c2ccccc2)cc1
inactive: dose: 100.0 mg/kg/injection, schedule: Q01DX001 (ip), vehicle: carboxymethylcellulose (CMC) 94 % of control | dose: 200.0 mg/kg/injection, schedule: Q01DX001 (ip), vehicle: carboxymethylcellulose (CMC) 96 % of control | dose: 400.0 mg/kg/injection, schedule: Q01DX001 (ip), vehicle: carboxymethylcellulose (CMC) 86 % of control

[N-]=[N+]=C1N=NC=C1C(N)=O
inactive: [4] 98 % of control | [5] 107 % of control | [6] 107 % of control

N#Cc1cccc(/C=C/C=C\c2ccc([N+](=O)[O-])cc2)c1
inactive: [8] 89 % of control | [9] 95 % of control
